pIC50: −log10 of the molar value.
These compounds were tested against T1, CCR2 (Homo sapiens, UniProt P41597) (assay: chemotaxis (conventional migration), ligand binding or calcium mobilization (calcium flux) assays). Conditions: Table 2: activity in one of the chemotaxis.
T1 construct: chemokine expressing cells (such as THP-1 cells for CCR2 assay or MOLT-4 cells for CCR9 assay); host or cells: THP-1 cells
Type: cell-based
Protocol: THP-1 cells and MOLT-4 cells were obtained from the American Type Culture Collection (Manassas, Va.) and cultured in RPMI tissue culture medium supplemented with 10% fetal calf serum (FCS) in a humidified 5% CO2 incubator at 37° C. Recombinant human chemokine proteins MCP-1 and TECK were obtained from R&D Systems (Minneapolis, Minn.). ^125I-labeled MCP-1 protein was obtained from Amersham (Piscataway, N.J.). ChemoTX® chemotaxis microchambers were purchased from Neuro Probe (Gaithersburg, Md.). CyQUANT® cell proliferation kits were purchased from Molecular Probes (Eugene, Oreg.). Calcium indicator dye Fluo-4 AM was purchased from Molecular Devices (Mountain View, Calif.).
Conventional-migration assay was used to determine the efficacy of potential receptor antagonists in blocking migration mediated through chemokines (such as CCR2 or CCR9). This assay was routinely performed using the ChemoTX® microchamber system with a 5-μm pore-sized polycarbonate membrane. To begin such an assay, chemokine expressing cells (such as THP-1 cells for CCR2 assay or MOLT-4 cells for CCR9 assay) were harvested by centrifugation of cell suspension at 1000 RPM on a GS-6R Beckman centrifuge. The cell pellet was resuspended in chemotaxis buffer (HBSS with 0.1% BSA) at 10×10^6cells/mL for CCR2 assay (5 ×10^6cells/mL for CCR9 assay). Test compounds at desired concentrations were prepared from 10 mM stock solutions by serial dilutions in chemotaxis buffer. An equal volume of cells and compounds were mixed and incubated at room temperature for 15 minutes. Afterwards, 20 μL of the mixture was transferred onto the porous membrane of a migration microchamber, with 29 μL of chemokine ligand (0.1 nM chemokine MCP-1 protein for CCR2 assay or 50 nm chemokine TECK protein for CCR9 assay) placed at the lower chamber. Following an incubation at 37° C. (90-minute for CCR2; 150-minute for CCR9), during which cells migrated […] the chemokine gradient, the assay was terminated by removing the cell drops from atop the filter. To quantify cells migrated across the membrane, 5 μL of 7X CyQUANT® solution was added to each well in the lower chamber, and the fluorescence signal measured on a Spectrafluor Plus fluorescence plate reader (TECAN, Durham, N.C.). The degree of inhibition was determined by comparing migration signals between compound-treated and untreated cells. IC50 calculation was further performed by non-linear squares regression analysis using Graphpad Prism (Graphpad Software, San Diego, Calif.).
Calcium flux assay measures an increase in intracellular calcium following ligand-induced receptor activation. In the screen of chemokine antagonists, it was used as a secondary assay carried out on a FLIPR® machine (Molecular Devices, Mountain View, Calif.). To begin an assay, chemokine expressing cells (such as THP-1 cells for CCR2 assay or MOLT-4 cells for CCR9 assay) were harvested by centrifugation of cell suspension, and resuspended to 1.5×10^6 cells/mL in HBSS (with 1% fetal calf serum). Cells were then labeled with a calcium indicator dye Fluo-4 AM for 45 minutes at 37° C. with gentle shaking. Following incubation, cells were pelletted, washed once with HBSS and resuspended in the same buffer at a density of 1.6×10^6 cells/mL. One hundred microliters of labeled cells were mixed with 10 μL of test compound at the appropriate concentrations on an assay plate. Chemokine protein (MCP-1 at a final concentration of 0.1 nM for CCR2 assay or TECK at a final concentration of 25 nM for CCR9 assay) to activate the receptor. The degree of inhibition was determined by comparing calcium signals between compound-treated and untreated cells. IC50 calculations were further performed by non-linear squares regression analysis using Graphpad Prism (Graphpad Software, San Diego, Calif.).
Ligand binding assay was used to determine the ability of potential CCR2 antagonists to block the interaction between CCR2 and its ligand MCP-1. […]

T1 sequence (P41597 whole entry): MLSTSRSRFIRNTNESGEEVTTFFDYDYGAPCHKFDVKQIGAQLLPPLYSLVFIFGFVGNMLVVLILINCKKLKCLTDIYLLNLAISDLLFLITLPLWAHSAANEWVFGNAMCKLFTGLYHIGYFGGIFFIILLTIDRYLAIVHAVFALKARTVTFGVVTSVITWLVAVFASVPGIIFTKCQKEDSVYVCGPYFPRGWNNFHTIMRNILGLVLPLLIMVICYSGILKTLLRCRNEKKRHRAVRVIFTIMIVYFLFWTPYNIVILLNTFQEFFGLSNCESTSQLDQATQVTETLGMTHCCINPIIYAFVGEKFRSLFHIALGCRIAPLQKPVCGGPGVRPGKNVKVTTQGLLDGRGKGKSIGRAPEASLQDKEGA

pIC50 | SMILES
> 6.30 | O=C(c1ccccc1)c1cc(Cl)ccc1NS(=O)(=O)c1ccc(Cl)c(C(F)(F)F)c1 [drawing 302]
> 6.30 | Cn1ccnc1C(O)c1cc(Cl)ccc1NS(=O)(=O)c1ccc(Cl)c(Cl)c1 (stereo not shown) [drawing 303]
> 6.30 | Cn1ccc(C(=O)c2cc(Cl)ccc2NS(=O)(=O)c2ccc(Cl)c(C(F)(F)F)c2)n1 [drawing 311]

Continued, compound first:

SMILES | pIC50
O=C(c1ccccc1)c1ccc(Br)cc1NS(=O)(=O)c1ccc(Cl)c(Cl)c1 [drawing 301] | > 6.30
O=S(=O)(Nc1ccc(Cl)cc1-c1nnn[nH]1)c1ccc(Cl)c(Cl)c1 [drawing 304] | > 6.30
O=C(c1ccc(F)cc1)c1cc(Cl)ccc1NS(=O)(=O)c1ccc(Cl)c(Cl)c1 [drawing 305] | > 6.30
O=C(c1ccccc1F)c1cc(Cl)ccc1NS(=O)(=O)c1ccc(Cl)c(Cl)c1 [drawing 306] | > 6.30

Same assay, conditions: Table 3: activity in one of the chemotaxis

pIC50 | SMILES
5.30 to 6.30 | Cn1ccnc1C(O)c1cc(Cl)ccc1NS(=O)(=O)c1ccc(Cl)c(Cl)c1 (stereo not shown) [drawing 327]
5.30 to 6.30 | O=C(c1ccccc1)c1cc(Cl)ccc1NS(=O)(=O)c1ccc(Cl)cc1 [drawing 330]
5.30 to 6.30 | O=C(c1ccccc1)c1cc(Cl)ccc1NS(=O)(=O)c1ccc(Cl)c(Cl)c1 [drawing 342]

The next lines start with the compound.

SMILES | pIC50
Cn1ccc(C(=O)c2cc(Cl)ccc2NS(=O)(=O)c2ccc(Cl)c(C(F)(F)F)c2)n1 [drawing 322] | 5.30 to 6.30
O=S(=O)(Nc1ccc(Cl)cc1-c1nnn[nH]1)c1ccc(Cl)c(Cl)c1 [drawing 325] | 5.30 to 6.30
O=C(c1ccccc1)c1ccc(Br)cc1NS(=O)(=O)c1ccc(Cl)c(Cl)c1 [drawing 328] | 5.30 to 6.30
O=C(c1ccccc1F)c1cc(Cl)ccc1NS(=O)(=O)c1ccc(Cl)c(Cl)c1 [drawing 335] | 5.30 to 6.30
O=C(c1ccc(F)cc1)c1cc(Cl)ccc1NS(=O)(=O)c1ccc(Cl)c(Cl)c1 [drawing 336] | 5.30 to 6.30
O=C(c1ccccc1)c1cc(Cl)ccc1NS(=O)(=O)c1ccc(Cl)c(C(F)(F)F)c1 [drawing 337] | 5.30 to 6.30
O=C(c1ccccc1)c1cc(F)ccc1NS(=O)(=O)c1ccc(Cl)c(Cl)c1 [drawing 338] | 5.30 to 6.30
O=C(c1ccccc1)c1ccc(Cl)cc1NS(=O)(=O)c1ccc(Cl)c(C(F)(F)F)c1 [drawing 344] | 5.30 to 6.30
O=C(c1ccc(Cl)cc1NS(=O)(=O)c1ccc(Cl)c(C(F)(F)F)c1)N1CCCCC1 [drawing 371] | 5.30 to 6.30

Reference: patent US20100234364A1, “CCR2 INHIBITORS AND METHODS OF USE THEREOF” (priority 2007, published 2010)
